According to paper PMC6961345 (Antiviral Chemistry & Chemotherapy, 2018):
Values joined by “and” are separate entries in the source; they are usually repeats but may differ in a detail not shown here. Equal values may be shown once. “Also recorded” adds a separate entry of the source. Read-outs that look alike come from different tables or passages of the source.

How the values were obtained:
[1] = tested on: A/Tennessee/1-560/2009 (H1N1)pdm09; assay: microbe, parasite or virus in culture; assay type: cell-based, influenza A virus; details: for EC90: two independent assays
[2] = tested on: HA protein (A/Brisbane/59/2007); assay type: cell-based, influenza A virus
[3] = tested on: viral M gene RNA (A/Brisbane/59/2007); assay type: cell-based, influenza A virus; details: 8, 12, 18 and 24 h
[4] = tested on: MDCK cells; details: 100 µM enisamium iodide, 24 h, n = 3 wells
[5] = tested on: B/Texas/06/2011; assay: microbe, parasite or virus in culture; assay type: cell-based, influenza B virus; details: for EC90: two independent assays
[6] = tested on: influenza A/Brisbane/59/2007 (H1N1) virus; assay: Time-of-addition experiment in dNHBE cells; assay type: cell-based
[7] = tested on: influenza A/Brisbane/59/2007 (H1N1) virus; assay type: cell-based
[8] = tested on: A/Vietnam/1203/2004 (H5N1); assay: microbe, parasite or virus in culture; assay type: cell-based, influenza A virus; details: for EC90: Influenza A virus, H5N1, 48 h
[9] = tested on: A/Brisbane/59/2007 (H1N1); assay: microbe, parasite or virus in culture; assay type: cell-based, influenza A virus; details: for EC90: two independent assays
[10] = tested on: Differentiated NHBE cells; details: for enisamium uptake: 1000 µM, 2000 µM (Figure 2 legend)
[11] = tested on: influenza A/Brisbane/59/2007 (H1N1) virus; assay type: cell-based; remark: listed apart in the source
[12] = tested on: influenza A and B viruses; assay: microbe, parasite or virus in culture; assay type: cell-based
[13] = tested on: Undifferentiated NHBE cells; details: 2000 µM enisamium chloride, 24 h
[14] = tested on: A/Perth/16/2009 (H3N2); assay: microbe, parasite or virus in culture; assay type: cell-based, influenza A virus; details: for EC90: two independent assays
[15] = tested on: segment 7 viral, complementary, and messenger RNA (A/Brisbane/59/2007); assay type: cell-based, influenza A virus; details: 24 h incubation
[16] = tested on: A/Anhui/1/2013 (H7N9); assay: microbe, parasite or virus in culture; assay type: cell-based, influenza A virus; details: for EC90: Influenza A virus, H7N9, 48 h
[17] = CC50 divided by EC90, dNHBE cells

SMILES: C[n+]1ccc(C(=O)NCc2ccccc2)cc1 [enisamium, N-methyl-4-benzylcarbamidopyridinium]
- Selectivity index [1, 17]: 34
- EC90 ([1]; Influenza A virus, H1N1, 48 h): 233 µM
- EC90 [1]: 351 µM
- amount of detectable HA protein [2]: markedly decreased
- viral M gene RNA versus untreated cells [3]: lower
- Concentration of enisamium, Intracellular (mean ± SD) [4]: 27.9 ± 1.4 ng/10^6 cells
- Selectivity index [5, 17]: 64
- EC90 ([5]; Influenza B virus, 48 h): 105 µM
- EC90 [5]: 209 µM
- inhibition of virus replication (virus yield reduction) [6]: 2.3–2.6 log10TCID50/ml
- reductions in virus titers [6]: ≥ 100 fold
- virus yield reduction [6]: 1.3 log10TCID50/ml and 0.7 log10TCID50/ml
- Antiviral activity in MDCK cells (plaque number/size, virus titers) [7]: no antiviral activity was found; also recorded: did not reduce; also recorded: ineffective
- Selectivity index [8]: 25
- EC90 [8]: 400 µM
- Selectivity index [9, 17]: 23
- EC90 ([9]; Influenza A virus, H1N1, 48 h): 412 µM
- EC90 [9]: 466 µM
- Intracellular concentration of enisamium (mean ± SD) ([10]; 10 µM enisamium, 24 h): 36.8 ng/10^6 cells and 36.8 ± 3.9 ng/10^6 cells
- Permeability (mean ± SD) ([10]; 10 µM enisamium, 24 h): 1.40 ± 0.15%
- Intracellular concentration of enisamium (mean ± SD) ([10]; 50 µM enisamium, 24 h): 213 ng/10^6 cells and 213 ± 34 ng/10^6 cells
- Permeability (mean ± SD) ([10]; 50 µM enisamium, 24 h): 1.62 ± 0.26%
- Intracellular concentration of enisamium (mean ± SD) ([10]; 100 µM enisamium, 24 h): 410 ng/10^6 cells and 410 ± 77 ng/10^6 cells
- Permeability (mean ± SD) ([10]; 100 µM enisamium, 24 h): 1.56 ± 0.29%
- Intracellular concentration of enisamium (mean ± SD) ([10]; 500 µM enisamium, 24 h): 1727 ng/10^6 cells and 1727 ± 108 ng/10^6 cells
- Permeability (mean ± SD) ([10]; 500 µM enisamium, 24 h): 1.31 ± 0.08%
- Intracellular concentration of enisamium (mean ± SD) ([10]; 1000 µM enisamium, 24 h): 3009 ng/10^6 cells and 3009 ± 132 ng/10^6 cells
- Permeability (mean ± SD) ([10]; 1000 µM enisamium, 24 h): 1.15 ± 0.05%
- Concentration of enisamium, Intracellular (mean ± SD) ([10]; 2000 µM enisamium chloride, 24 h, n = 3 wells): 10,700 ± 1900 ng/10^6 cells
- Permeability, all concentrations tested ([10]; 10-1000 µM enisamium, 24 h): 1.1–1.6%
- enisamium uptake ([10]; exposure 0.25 h): 482 ng/10^6 cells
- enisamium uptake ([10]; exposure 24 h): 2732 ng/10^6 cells
- Permeability (mean ± SD) ([10]; ratio intracellular to initial input, 2000 µM enisamium chloride, 24 h): 1.9% and 1.90 ± 0.20%
- antiviral effect at lower concentrations ([11]; 100 and 500 µM, 24 h pretreatment): did not appreciably show an antiviral effect
- intracellular concentration required for achieving an antiviral activity ([11]; dNHBE cells): exceeds 1885 ng/10^6 cells
- EC90 ([12]; Influenza A virus, read-out: 90% effective (EC90) concentration range): 157 to 439 µM
- reduction of virus titers ([12]; at certain concentrations, dNHBE cells): 100 fold
- Selectivity index values (CC50 divided by EC90) ([12]; range over all viruses tested, dNHBE cells): 23- to 64 and > 20
- Concentration of enisamium, Intracellular (mean ± SD) ([13]; n = 3 wells): 4110 ± 830 ng/10^6 cells
- Permeability (mean ± SD) ([13]; ratio intracellular to initial input): 0.85 ± 0.21%
- Selectivity index [14, 17]: 30
- EC90 ([14]; Influenza A virus, H3N2, 48 h): 287 µM
- EC90 [14]: 375 µM
- inhibition of viral RNA synthesis [15]: nearly a complete inhibition
- Selectivity index [16]: 24
- EC90 [16]: 410 µM

SMILES: CCC(CC)O[C@@H]1C=C(C(=O)O)C[C@H](N)[C@H]1NC(C)=O [oseltamivir carboxylate]
- EC90 ([1]; Influenza A virus, H1N1, 48 h): < 1 µM
- EC90 ([5]; Influenza B virus, 48 h): < 1 µM
- EC90 [8]: < 1 µM
- EC90 ([9]; Influenza A virus, H1N1, 48 h): < 1 µM
- inhibition of virus replication at 24 and 48 h postinfection [11]: inhibited virus replication
- EC90 ([14]; Influenza A virus, H3N2, 48 h): < 1 µM
- EC90 [16]: < 1 µM
